From ChEMBL document CHEMBL1201862, “PubChem BioAssay data set” (2004)
The source made the active and inactive calls.

How the values were obtained:
cells [1] = assay type: functional, cell-based
cells [2] = assay type: functional, cell-based; remark: listed apart in the source
[3] = target: T1, RNA-binding protein pos-1 (Caenorhabditis elegans, UniProt G5EF15); assay: inhibitors of POS-1/mex-3 RNA binding, dose response, biochemical, fluorescence polarization (AID 1964);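 further: purified POS-1 fused to maltose binding protein made in E. coli; potency of compounds blocking POS-1 binding to fluorescent RNA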
T1 sequence (G5EF15 whole entry): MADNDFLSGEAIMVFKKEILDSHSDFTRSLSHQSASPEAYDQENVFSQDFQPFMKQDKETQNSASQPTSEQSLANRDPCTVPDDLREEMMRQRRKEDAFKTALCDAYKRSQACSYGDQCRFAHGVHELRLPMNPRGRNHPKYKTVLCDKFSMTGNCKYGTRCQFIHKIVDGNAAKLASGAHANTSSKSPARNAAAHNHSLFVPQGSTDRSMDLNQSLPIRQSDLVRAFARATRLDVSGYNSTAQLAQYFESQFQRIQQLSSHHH

[4] = Luminescence Cell-Based Dose Confirmation HTS to Identify Activators of 5'UTR Stem-Loop Driven Alpha-Synuclein mRNA Translation in H4 Neuroglioblastoma Cells. [Related pubchem assays: 1829 (Project Summary), 1814 (Primary HTS)]; assay type: functional
[5] = Luminescence Cell-Based Dose Response HTS to Identify Activators of Luciferase Translation or Activity in H4 […] Cells. [Related pubchem assays: 1829 (Project Summary), 1814 (Primary HTS)]; assay type: functional
H4 = assay: Luminescence Cell-Based Dose Response HTS to Identify Activators of 5'UTR Stem-Loop Driven Prion Protein mRNA Translation in H4 Neuroglioblastoma Cells. [Related pubchem assays: 1829 (Project Summary), 1814 (Primary HTS)]; assay type: functional; details: Homo sapiens
[6] = target: T2, Zinc finger protein mex-5 (Caenorhabditis elegans, UniProt Q9XUB2); assay: MEX-5/TCR-2 RNA interaction inhibitors, dose response, biochemical, C. elegans, fluorescence polarization (AID 1960)
T2 sequence (Q9XUB2 whole entry): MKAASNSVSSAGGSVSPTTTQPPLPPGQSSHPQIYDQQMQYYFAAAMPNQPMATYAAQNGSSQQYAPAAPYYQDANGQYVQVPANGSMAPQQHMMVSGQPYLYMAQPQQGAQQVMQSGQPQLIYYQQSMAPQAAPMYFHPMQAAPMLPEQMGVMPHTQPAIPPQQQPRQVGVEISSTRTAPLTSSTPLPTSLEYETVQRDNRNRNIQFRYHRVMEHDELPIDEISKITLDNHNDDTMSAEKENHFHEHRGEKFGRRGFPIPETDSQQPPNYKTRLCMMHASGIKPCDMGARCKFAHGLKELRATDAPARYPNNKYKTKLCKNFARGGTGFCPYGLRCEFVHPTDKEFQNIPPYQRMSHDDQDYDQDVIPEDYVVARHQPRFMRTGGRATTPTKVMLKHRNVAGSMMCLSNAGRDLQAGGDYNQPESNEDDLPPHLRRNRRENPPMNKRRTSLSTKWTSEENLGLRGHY

Protein skinhead-1 = target: T3, Protein skinhead-1 (Caenorhabditis elegans, UniProt P34707); assay type: functional
T3 sequence (P34707 whole entry): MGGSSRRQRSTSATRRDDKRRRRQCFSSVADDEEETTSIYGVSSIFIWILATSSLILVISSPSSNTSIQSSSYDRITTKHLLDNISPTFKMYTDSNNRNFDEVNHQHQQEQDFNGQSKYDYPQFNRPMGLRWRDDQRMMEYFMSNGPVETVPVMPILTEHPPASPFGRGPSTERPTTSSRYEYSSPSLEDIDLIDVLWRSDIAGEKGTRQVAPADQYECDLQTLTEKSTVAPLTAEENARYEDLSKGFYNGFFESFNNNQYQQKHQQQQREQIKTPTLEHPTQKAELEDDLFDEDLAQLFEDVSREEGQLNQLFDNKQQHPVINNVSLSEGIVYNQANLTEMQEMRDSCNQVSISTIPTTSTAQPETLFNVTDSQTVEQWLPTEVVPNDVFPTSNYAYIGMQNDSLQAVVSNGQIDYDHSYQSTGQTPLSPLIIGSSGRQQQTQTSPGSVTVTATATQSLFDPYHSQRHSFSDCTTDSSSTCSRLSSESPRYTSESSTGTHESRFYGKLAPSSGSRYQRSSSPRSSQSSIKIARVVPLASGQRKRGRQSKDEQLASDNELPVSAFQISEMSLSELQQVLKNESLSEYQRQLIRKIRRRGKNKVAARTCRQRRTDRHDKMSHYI

[7] = target: G-protein coupled receptor 55 (Homo sapiens, UniProt Q9Y2T6); assay: GPR55 antagonists blocking LPI-driven arrestin recruitment, primary screen, imaging, U2OS, beta-arrestin-GFP, LPI agonist (AID 2013); assay type: functional;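 further: antagonist potency measured as reduced agonist-driven arrestin aggregation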
Fatty acid synthase [8] = target: T4, Fatty acid synthase (Homo sapiens, UniProt P49327); assay: FAS thioesterase domain inhibitors, dose response, biochemical, endpoint fluorescence intensity, uHTS hits (AID 624327); assay type: functional;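 further: fluorescence from hydrolysis of an O-methyl fluorescein acyl ester substrate by the enzyme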
Fatty acid synthase [9] = target: T4, Fatty acid synthase; assay: FAS thioesterase domain inhibitors, dose response, biochemical, kinetic fluorescence intensity (AID 624326); assay type: functional;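 further: rate of fluorescence rise from hydrolysis of a fluorogenic O-methyl fluorescein ester substrate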
Cytochrome P450 2C19 = Cytochrome P450 2C19 (Homo sapiens, UniProt P33261); assay: Cytochrome panel assay with activity outcomes. Panel member name: p450-cyp2c19 Compounds with AC50 equal or less than 10 uM are considered active; assay type: functional
Cytochrome P450 2C9 = Cytochrome P450 2C9 (Homo sapiens, UniProt P11712)
Cytochrome P450 1A2 = target: T5, Cytochrome P450 1A2 (Homo sapiens, UniProt P05177);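 further: PubChem cytochrome P450 panel assay, CYP1A2 panel member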
T5 sequence (P05177 whole entry): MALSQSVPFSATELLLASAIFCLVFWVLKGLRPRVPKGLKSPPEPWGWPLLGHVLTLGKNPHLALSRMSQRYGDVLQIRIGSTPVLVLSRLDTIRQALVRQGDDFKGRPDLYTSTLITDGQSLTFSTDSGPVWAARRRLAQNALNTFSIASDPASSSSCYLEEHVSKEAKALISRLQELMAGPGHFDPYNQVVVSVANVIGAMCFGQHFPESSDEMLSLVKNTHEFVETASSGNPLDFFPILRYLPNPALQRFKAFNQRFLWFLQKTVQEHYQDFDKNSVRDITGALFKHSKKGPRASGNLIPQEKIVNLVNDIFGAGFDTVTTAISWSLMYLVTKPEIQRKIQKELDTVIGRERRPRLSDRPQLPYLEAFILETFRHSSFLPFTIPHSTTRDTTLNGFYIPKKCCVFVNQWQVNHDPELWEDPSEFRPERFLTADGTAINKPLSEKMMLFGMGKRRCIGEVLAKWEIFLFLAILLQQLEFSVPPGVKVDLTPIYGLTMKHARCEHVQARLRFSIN

[10] = target: T6, Carboxy-terminal domain RNA polymerase II polypeptide A small phosphatase 1 (Homo sapiens, UniProt Q9GZU7); assay: inhibitors of CTDSP1, concentration-response testing, biochemical assay, absorbance-based, actives from ultra-high-throughput screening (AID 540297); assay type: functional
T6 sequence (Q9GZU7 whole entry): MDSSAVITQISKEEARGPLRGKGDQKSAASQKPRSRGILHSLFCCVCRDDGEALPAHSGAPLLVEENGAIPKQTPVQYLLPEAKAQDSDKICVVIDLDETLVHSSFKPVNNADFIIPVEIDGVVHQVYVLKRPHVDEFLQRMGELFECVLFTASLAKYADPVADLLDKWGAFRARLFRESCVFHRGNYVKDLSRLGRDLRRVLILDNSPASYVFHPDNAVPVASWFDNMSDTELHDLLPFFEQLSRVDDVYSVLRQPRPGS

[11] = target: T7, Ubiquitin-conjugating enzyme E2 N (Homo sapiens, UniProt P61088); assay type: functional;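 further: Dose-response confirmation in a TR-FRET assay detecting UBC13-driven polyubiquitin chain formation, inhibition measured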
T7 sequence (P61088 whole entry): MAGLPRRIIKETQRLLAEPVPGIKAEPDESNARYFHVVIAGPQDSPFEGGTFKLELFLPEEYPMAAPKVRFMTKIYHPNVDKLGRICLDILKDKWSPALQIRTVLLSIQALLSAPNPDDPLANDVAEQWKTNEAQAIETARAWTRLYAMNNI

[12] = cytotoxicity in HEK-293T cells, dose response, cytotoxicity control for TCR NF-kB inhibitor project, luminescence, T-cell screen hits (AID 489026); assay type: functional, cell-based;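 further: cells exposed to compound about 14 hours before the viability readout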
Cytochrome P450 2D6 = Cytochrome P450 2D6 (Homo sapiens, UniProt P10635);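 further: CYP2D6 member of a cytochrome P450 panel assay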
Cytochrome P450 3A4 = Cytochrome P450 3A4 (Homo sapiens, UniProt P08684);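 further: CYP3A4 tested as one member of a cytochrome P450 panel screen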
[13] = target: T8, Polyadenylate-binding protein 1 (Homo sapiens, UniProt P11940); assay: PABP1 MLLE–PAM2 interaction inhibitors, dose response, miRNA deadenylation inhibitor project, biochemical, fluorescence polarization, Cy5-PAM2 peptide, secondary (AID 602260); assay type: functional; details: read-out: IC50_Mean
[14] = target: T8, Polyadenylate-binding protein 1; assay: PABP1 MLLE–PAM2 binding inhibitor potency, dose response, biochemical, fluorescence polarization, FITC-PAM2 peptide (AID 602259); assay type: functional; details: read-out: IC50_Mean
P388/ADR = assay: cells; assay type: functional; details: Mus musculus
SN12K1 = assay: cells; assay type: functional; details: Homo sapiens

T4 sequence (P49327 whole entry, the tested form may be a part): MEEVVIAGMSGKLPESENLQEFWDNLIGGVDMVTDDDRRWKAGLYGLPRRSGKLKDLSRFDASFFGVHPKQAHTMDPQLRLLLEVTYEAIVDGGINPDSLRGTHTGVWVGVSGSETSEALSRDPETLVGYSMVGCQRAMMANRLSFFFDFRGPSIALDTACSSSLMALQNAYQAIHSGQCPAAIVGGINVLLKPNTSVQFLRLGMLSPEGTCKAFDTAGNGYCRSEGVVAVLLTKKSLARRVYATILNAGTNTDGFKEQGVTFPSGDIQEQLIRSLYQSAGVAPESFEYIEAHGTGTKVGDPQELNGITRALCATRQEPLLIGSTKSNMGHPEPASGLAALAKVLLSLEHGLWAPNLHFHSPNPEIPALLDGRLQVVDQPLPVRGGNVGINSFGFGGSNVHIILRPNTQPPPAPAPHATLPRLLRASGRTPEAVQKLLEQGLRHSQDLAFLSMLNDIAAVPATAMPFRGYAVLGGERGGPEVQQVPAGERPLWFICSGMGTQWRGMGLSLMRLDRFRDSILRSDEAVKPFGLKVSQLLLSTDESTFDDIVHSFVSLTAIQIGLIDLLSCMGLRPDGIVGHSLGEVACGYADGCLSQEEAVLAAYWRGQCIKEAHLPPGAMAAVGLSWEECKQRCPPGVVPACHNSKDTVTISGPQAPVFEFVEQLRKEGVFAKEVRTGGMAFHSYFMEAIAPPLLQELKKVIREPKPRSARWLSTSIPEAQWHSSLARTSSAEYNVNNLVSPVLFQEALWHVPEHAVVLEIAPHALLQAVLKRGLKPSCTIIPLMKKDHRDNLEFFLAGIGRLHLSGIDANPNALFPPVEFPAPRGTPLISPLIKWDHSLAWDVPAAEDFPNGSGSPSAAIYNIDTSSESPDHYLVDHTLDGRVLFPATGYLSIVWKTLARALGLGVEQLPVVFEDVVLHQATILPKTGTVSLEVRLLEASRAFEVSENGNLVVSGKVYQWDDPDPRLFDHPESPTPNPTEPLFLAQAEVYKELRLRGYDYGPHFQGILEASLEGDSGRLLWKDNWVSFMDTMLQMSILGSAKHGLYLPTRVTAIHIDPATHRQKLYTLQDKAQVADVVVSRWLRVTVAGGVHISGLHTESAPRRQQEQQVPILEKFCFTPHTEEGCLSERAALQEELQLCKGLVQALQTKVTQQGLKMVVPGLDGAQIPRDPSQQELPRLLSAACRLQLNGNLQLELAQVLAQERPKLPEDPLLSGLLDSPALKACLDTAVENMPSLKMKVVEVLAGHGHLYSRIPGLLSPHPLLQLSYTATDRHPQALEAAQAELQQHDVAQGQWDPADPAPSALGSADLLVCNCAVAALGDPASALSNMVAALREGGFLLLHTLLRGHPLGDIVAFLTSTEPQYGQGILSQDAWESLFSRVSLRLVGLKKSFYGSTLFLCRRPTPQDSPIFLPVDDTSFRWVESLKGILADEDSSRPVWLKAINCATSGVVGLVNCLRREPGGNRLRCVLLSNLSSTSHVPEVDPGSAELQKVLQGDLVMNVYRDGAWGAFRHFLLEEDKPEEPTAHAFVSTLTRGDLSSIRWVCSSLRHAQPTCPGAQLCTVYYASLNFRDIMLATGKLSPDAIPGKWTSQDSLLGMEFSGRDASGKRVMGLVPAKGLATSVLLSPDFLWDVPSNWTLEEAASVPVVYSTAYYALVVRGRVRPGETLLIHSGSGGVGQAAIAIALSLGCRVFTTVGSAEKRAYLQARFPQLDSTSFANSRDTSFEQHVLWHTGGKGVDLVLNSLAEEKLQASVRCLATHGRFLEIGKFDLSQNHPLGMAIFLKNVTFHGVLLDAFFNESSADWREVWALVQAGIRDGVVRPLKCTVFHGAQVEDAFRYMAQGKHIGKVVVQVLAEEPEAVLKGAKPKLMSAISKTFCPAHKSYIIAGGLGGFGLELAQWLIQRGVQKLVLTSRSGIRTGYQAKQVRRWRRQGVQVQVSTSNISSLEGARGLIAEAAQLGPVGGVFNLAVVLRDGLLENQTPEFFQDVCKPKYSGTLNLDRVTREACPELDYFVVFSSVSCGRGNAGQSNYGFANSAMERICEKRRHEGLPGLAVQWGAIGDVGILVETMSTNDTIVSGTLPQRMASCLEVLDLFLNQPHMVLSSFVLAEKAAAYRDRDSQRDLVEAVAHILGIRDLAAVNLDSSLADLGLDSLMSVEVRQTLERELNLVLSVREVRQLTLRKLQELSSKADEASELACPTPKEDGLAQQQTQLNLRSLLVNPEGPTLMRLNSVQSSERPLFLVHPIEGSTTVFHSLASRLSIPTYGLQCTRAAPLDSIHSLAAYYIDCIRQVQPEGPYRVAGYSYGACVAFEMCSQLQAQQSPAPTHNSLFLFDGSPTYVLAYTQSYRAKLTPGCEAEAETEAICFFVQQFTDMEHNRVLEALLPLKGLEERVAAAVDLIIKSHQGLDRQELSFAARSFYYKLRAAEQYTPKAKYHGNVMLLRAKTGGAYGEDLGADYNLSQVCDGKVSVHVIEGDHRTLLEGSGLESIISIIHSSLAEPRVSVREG
Sequence of G-protein coupled receptor 55 (Q9Y2T6 whole entry, the tested form may be a part): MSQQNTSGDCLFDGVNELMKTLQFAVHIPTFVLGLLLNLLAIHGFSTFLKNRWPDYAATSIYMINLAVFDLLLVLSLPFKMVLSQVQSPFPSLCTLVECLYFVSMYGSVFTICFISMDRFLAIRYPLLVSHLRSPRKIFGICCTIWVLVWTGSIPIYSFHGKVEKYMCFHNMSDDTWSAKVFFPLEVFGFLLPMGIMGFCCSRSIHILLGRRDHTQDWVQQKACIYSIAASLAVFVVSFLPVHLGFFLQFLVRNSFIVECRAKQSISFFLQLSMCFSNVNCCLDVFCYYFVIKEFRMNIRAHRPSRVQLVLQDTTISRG
Sequence of Cytochrome P450 2C9 (P11712 whole entry): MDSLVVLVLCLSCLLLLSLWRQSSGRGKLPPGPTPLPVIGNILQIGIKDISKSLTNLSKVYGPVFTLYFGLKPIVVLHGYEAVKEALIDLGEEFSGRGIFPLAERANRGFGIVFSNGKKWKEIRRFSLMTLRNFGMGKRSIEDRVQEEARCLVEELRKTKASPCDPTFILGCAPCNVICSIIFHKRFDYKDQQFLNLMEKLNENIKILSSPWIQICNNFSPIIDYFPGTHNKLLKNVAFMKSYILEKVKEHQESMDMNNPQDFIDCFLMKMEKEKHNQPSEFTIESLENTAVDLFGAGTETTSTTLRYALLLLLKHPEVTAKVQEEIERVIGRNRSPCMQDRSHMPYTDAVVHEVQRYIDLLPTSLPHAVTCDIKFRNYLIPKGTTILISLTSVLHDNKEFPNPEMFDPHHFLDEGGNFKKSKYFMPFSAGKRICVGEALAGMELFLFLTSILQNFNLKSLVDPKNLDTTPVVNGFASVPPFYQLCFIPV
Sequence of Cytochrome P450 2C19 (P33261 whole entry): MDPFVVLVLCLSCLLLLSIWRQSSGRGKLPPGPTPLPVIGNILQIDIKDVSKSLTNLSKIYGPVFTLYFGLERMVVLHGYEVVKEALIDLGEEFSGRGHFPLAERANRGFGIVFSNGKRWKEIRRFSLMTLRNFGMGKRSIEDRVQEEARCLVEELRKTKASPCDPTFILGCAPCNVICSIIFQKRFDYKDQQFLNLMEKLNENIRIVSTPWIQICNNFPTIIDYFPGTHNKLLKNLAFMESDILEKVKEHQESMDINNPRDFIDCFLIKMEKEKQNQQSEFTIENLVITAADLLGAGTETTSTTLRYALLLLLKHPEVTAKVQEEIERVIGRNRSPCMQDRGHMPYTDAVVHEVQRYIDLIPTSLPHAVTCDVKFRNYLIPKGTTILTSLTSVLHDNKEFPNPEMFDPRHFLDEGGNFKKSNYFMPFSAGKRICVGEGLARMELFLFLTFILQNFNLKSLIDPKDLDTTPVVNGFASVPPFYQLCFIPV
T8 sequence (P11940 whole entry): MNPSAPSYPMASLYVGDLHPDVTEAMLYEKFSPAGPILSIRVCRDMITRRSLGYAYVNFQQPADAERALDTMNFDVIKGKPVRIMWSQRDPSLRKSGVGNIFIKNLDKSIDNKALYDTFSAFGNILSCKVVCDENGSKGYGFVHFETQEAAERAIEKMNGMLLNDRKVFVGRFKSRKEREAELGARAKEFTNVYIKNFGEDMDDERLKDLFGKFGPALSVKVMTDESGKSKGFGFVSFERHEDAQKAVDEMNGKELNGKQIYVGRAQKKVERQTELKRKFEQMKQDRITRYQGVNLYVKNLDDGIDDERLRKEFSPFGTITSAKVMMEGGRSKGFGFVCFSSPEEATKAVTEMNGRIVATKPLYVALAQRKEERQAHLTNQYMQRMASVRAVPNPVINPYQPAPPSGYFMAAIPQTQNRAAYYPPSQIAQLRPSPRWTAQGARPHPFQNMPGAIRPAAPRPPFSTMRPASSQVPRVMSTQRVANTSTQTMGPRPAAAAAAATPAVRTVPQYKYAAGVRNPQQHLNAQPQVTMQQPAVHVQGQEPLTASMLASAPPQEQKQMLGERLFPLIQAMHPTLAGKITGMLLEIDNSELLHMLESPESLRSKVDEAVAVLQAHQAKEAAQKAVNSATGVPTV
Sequence of Cytochrome P450 3A4 (P08684 whole entry): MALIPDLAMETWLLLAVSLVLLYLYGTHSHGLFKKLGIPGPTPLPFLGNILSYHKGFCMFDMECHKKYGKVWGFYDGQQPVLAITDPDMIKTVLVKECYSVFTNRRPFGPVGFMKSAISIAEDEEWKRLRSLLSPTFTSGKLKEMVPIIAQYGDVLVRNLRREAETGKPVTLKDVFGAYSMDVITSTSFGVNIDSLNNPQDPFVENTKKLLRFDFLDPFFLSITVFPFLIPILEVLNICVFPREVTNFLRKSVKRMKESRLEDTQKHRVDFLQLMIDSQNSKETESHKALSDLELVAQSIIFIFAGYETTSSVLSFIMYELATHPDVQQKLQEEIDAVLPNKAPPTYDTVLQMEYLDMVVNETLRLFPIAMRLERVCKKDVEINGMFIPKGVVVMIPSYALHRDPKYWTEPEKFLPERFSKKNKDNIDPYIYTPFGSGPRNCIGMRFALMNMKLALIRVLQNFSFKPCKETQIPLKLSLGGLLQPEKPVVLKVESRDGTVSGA

## Cc1ccc(C)c(OCC(=O)N2CCN(Cc3ccc4c(c3)OCO4)CC2)c1
Cells [1]
  EC50: > 350 µM (not active)
Cells [2]
  EC50: > 350 µM (not active)

## Cc1ccc(Cl)cc1N1CCN(CC(O)COCc2ccco2)CC1 (configuration not stated)
Cells [1]
  EC50: > 350 µM (not active)
Cells [2]
  EC50: > 350 µM (not active)

## Cc1cc(CC(C)C)n(-c2nc3ccccc3c(=O)n2OCc2ccccc2)n1
[3]
  EC50: > 300 µM (not active)
[4]
  EC50: 6.96 µM (active)
[5]
  EC50: 13.5 µM (active)
H4
  EC50: > 120 µM (not active)
[6]
  EC50: > 300 µM (not active)
Protein skinhead-1
  IC50: > 100 µM (inactive)

## CCOC(=O)c1c(N)sc(C(O)(C(F)(F)F)C(F)(F)F)c1-c1ccc(F)cc1
[7]
  IC50: 4.92 µM (active)

## O=C(c1cccc(S(=O)(=O)N2CCCC2)c1)c1cccc(S(=O)(=O)N2CCCC2)c1
Fatty acid synthase [8]
  IC50: 12.1 µM (active)
Fatty acid synthase [9]
  IC50: 6.54 µM (active)

## CN(C)CCNCCN
Cytochrome P450 2C19
  AC50: inconclusive
Cytochrome P450 2C9
  AC50: inconclusive

## COc1ccc(S(=O)(=O)N2CCc3ccccc3C2)cc1OC
Cytochrome P450 2C9
  AC50: inconclusive

## Nc1cc(=O)nc(SCC(=O)Nc2cccc3ccccc23)n1CCc1ccccc1
Cytochrome P450 1A2
  AC50: 17.8 µM (inconclusive)
Cytochrome P450 2C9
  AC50: inconclusive

## CCOc1ccccc1NC(=O)Cn1cnc2c(nnn2-c2cccc(OC)c2)c1=O
[10]
  IC50: 10.1 µM (active)

## O=C(COc1ccccc1[N+](=O)[O-])Nc1cccc(S(=O)(=O)NC2=NCCCCC2)c1
[10]
  IC50: 9 µM (active)

## COC(=O)C1=C(C)N(Cc2ccccc2)C(NCc2ccc(OC)cc2)=N[C@H]1c1cccc(F)c1
[7]
  IC50: 1.46 µM (active)
[11]
  IC50: > 20 µM (inactive)

## COc1cccc(C2CC(=O)Nc3cc4c(cc32)CCC4)c1 (configuration not stated)
[12]
  IC50: > 80 µM (inactive)

## O=S(=O)(Nc1ccc2c(c1)OCCO2)c1cccc2cccnc12
Cytochrome P450 2D6
  AC50: 39.8 µM (inconclusive)
Cytochrome P450 1A2
  AC50: 5.01 µM (inconclusive)
Cytochrome P450 2C9
  AC50: inconclusive

## COc1ccc(C(=O)Nc2cccc(-c3ccc4nncn4n3)c2)cc1
Cells [1]
  EC50: > 350 µM (not active)
Cells [2]
  EC50: > 350 µM (not active)

## CCSc1nc(NCCN(C)C)c2c3c(sc2n1)COC(C)(CC)C3 (configuration not stated)
Cells [1]
  EC50: > 350 µM (not active)
Cells [2]
  EC50: > 350 µM (not active)

## CCCC(=O)NNC(=O)CCC(=O)NCc1ccccc1
Cytochrome P450 2C19; read-out: AC50
  AC50: 39.8 µM (inconclusive)
Cytochrome P450 3A4
  AC50: 0.0562 µM (inconclusive)
Cytochrome P450 2C9
  AC50: inconclusive

## CC(C)(C)C1=CC(O)(c2ccccc2)C=C(C(C)(C)C)C1=O
[7]
  IC50: 18.7 µM (inactive)

## Cc1ccc2nc(SCC(=O)Nc3ccc(Br)cc3)nc(=O)n2c1
Cells [1]
  EC50: > 350 µM (not active)
Cells [2]
  EC50: > 350 µM (not active)

## CCc1ccc(NS(=O)(=O)c2cc3c(cc2C)n(C)c(=O)c(=O)n3C)cc1
[7]
  IC50: 3.39 µM (active)
Fatty acid synthase [8]
  IC50: 2.42 µM (active)
Fatty acid synthase [9]
  IC50: 2.83 µM (active)

## CCOc1ccc(N2C(=O)C3C4C=CC(CC4)C3C2=O)c([N+](=O)[O-])c1 (configuration not stated)
Cytochrome P450 1A2
  AC50: 25.1 µM (inconclusive)
Cytochrome P450 3A4
  AC50: 20 µM (inconclusive)
Cytochrome P450 2C9
  AC50: inconclusive

## C=CCN1C(=O)/C(=C2/Sc3ccccc3N2CCCS(=O)(=O)O)SC1=S.c1ccncc1
[10]
  IC50: 5.11 µM (active)
[13]
  IC50: > 66 µM (inactive)
[14]
  IC50: > 66 µM (inactive)

## COc1cccc2c1OC[C@@H](CO)[C@H]2N(C)C(=O)Nc1ccc(Cl)cc1Cl
Cytochrome P450 2C9
  AC50: inconclusive

## Cc1nc2scc(-c3ccc(Cl)cc3)c2c(=O)o1
Fatty acid synthase [8]
  IC50: 1.32 µM (active)
Fatty acid synthase [9]
  IC50: 2.91 µM (active)

## Cc1ccc([N+](=O)[O-])cc1NC(=O)CCCOc1ccccc1
Fatty acid synthase [8]
  IC50: 10.1 µM (active)
Fatty acid synthase [9]
  IC50: 27.3 µM (inactive)

## O=[N+]([O-])c1ccc(CN2CC(N3CCC(Cc4ccccc4)CC3)CS2(=O)=O)cc1 (configuration not stated)
Fatty acid synthase [8]
  IC50: 9.92 µM (active)
Fatty acid synthase [9]
  IC50: 6.24 µM (active)

## CC(=O)c1ccc(N(C(=O)c2ccco2)C(C(=O)NC2CCCC2)c2ccc(N3CCOCC3)cc2)cc1 (configuration not stated)
Fatty acid synthase [8]
  IC50: 15.5 µM (active)
Fatty acid synthase [9]
  IC50: 12.5 µM (active)

## C=C1C(=O)O[C@@H]2OC3(C)CCC4C(C)CCC1C42OO3 (some centres not stated)
P388/ADR
  GI50: 0.294 µM (active)
SN12K1
  GI50: 3.66 µM (inactive)

## COc1ccc(/C=C2\SC(=S)N(CCC(=O)Nc3cccc(C(=O)O)c3)C2=O)cc1
[10]
  IC50: 6.38 µM (active)
